Patent US9730874B2, “Nitrone compounds and their use in personal care” (Dow Global Technologies LLC, priority 2014, dated 2017)

Assay: Oxygen Radical Absorbance Capacity (ORAC) antioxidant potential
Assay type: biochemical
Conditions: calculated from ORAC values (AUC minus blank) vs Trolox; test concentration 100 micromolar
Description: Antioxidant potential is evaluated using the Oxygen Radical Absorbance Capacity (ORAC) protocol. ORAC is a chemical in-vitro method based on the hydrogen atom transfer (HAT) mechanism (see N. Re et al., Free Radical Biology & Medicine, 26 (9/10), 1231 (1997)). ORAC measures antioxidant inhibition of peroxyl radical induced oxidations and thus reflects classical radical chain breaking antioxidant activity by H atom transfer. In this assay, the peroxyl radical reacts with a fluorescent probe to form a non-fluorescent product. This is quantitated using a fluorescence measurement. Antioxidant capacity is determined by decreased rate and amount of product formed over time. This assay depends upon the free radical damage to the fluorescent probe resulting in the change in its fluorescence intensity. The change of fluorescence intensity is an indicator of the degree of free radical damage. In the presence of an antioxidant, the inhibition of free radical damage is reflected in higher fluorescence intensity and can be measured as antioxidant capacity against the free radicals. The uniqueness of ORAC assay is that the reaction is driven to completion. This allows calculation of the area under the curve (AUC) and gives an absolute quantitation of antioxidancy as opposed to relative measurements in many other assays.
As noted, the longer it takes to observe a decrease in fluorescence, the higher the antioxidant (AO) potential. From the AUC for a given antioxidant, the AUC for blank is subtracted to give its ORAC value. The concentration of AO needed to give the same AUC values as Trolox is calculated and used to represent the Trolox equivalent AO Capacity (TEAC). Trolox is ((±)-6-Hydroxy-2,5,7,8-tetramethylchromane-2-carboxylic acid, CAS #53188-07-1), and is used as an internal control.
The ORAC test is conducted in the stilbene-pendant nitrone compounds of Table 1 above (inventive compounds) as well as to Vitamin C, Vitamin E, and the following comparative compounds:
The inventive stilbene-pendant nitrones in the ORAC test solutions were at a concentration of 100 micromolar, while the concentrations of Trolox, Vitamin C, Vitamin E, BHT, PBN+BHT, and VAL-IPHA were at 100 micromolar. The TEAC values calculated from the ORAC values are listed the Table 3.
In the case of CC(C)(C)/[N+]([O-])=C/c1ccccc1 [PBN, 2-Phenyl-N-tert-butylnitrone, reference compound], the “TEAC (Trolox equivalent AO Capacity)” value was “not very high”.
For COc1cc(/C=C/c2ccc(O)c(/C=[N+](/[O-])Cc3ccc(O)cc3O)c2)ccc1O [Sald-24DHBzHA, N-(2-Hydroxy-5-(4-hydroxy-3-methoxystyryl)benzylidene)-1-(2,4-dihydroxyphenyl)methanamine oxide], the “TEAC (Trolox equivalent AO Capacity)” value was 7.31.
For COc1cc(/C=C/c2ccc(O)c(/C=[N+](/[O-])Cc3ccc(O)c(O)c3)c2)ccc1O [Sald-34-DHBzHA, N-(2-Hydroxy-5-(4-hydroxy-3-methoxystyryl)benzylidene)-1-(3,4-dihydroxyphenyl)methanamine oxide], the “TEAC (Trolox equivalent AO Capacity)” value was 7.16.
With COc1cc(/C=C/c2ccc(O)c(/C=[N+](/[O-])Cc3ccccc3)c2)ccc1O [Sald-BzHA, N-(2-Hydroxy-5-(4-hydroxy-3-methoxystyryl)benzylidene)-1-phenylmethanamine oxide] the “TEAC (Trolox equivalent AO Capacity)” value was 8.33.
In the case of COc1cc(/C=C/c2ccc(O)c(/C=[N+](/[O-])Cc3ccc(O)cc3)c2)ccc1O [Sald-pHBzHA, N-(2-Hydroxy-5-(4-hydroxy-3-methoxystyryl)benzylidene)-1-hydroxyphenylmethanamine oxide], the “TEAC (Trolox equivalent AO Capacity)” value was 9.02.
With O=C1O[C@H]([C@@H](O)CO)C(O)=C1O [Vitamin C, reference compound] the “TEAC (Trolox equivalent AO Capacity)” value was 0.76.
For Vitamin E [reference compound], the “TEAC (Trolox equivalent AO Capacity)” value was 0.13.
